The values that follow come from US11814376B2, “Hepatitis b core protein modulators” (Assembly Biosciences, Inc., priority 2015, dated 2023).

The subject of data set [1] is HBV viral load in AD38 cells. In words: Viral load production in AD38 cells, quantitative PCR of the core sequence in supernatant. Format: cell-based. The conditions noted are these: Hepatitis B virus, 144 h, 10 μM compound, 6 days at 37° C., supernatant qPCR, relative to DMSO control; read-out: AD38 Viral Load (%) (VL with cmpd/VL in DMSO control) at 10 μM. A general note: In qPCR the cycle at which signal appears reflects the starting amount.

A further data set concerns AD38 cells. Description: Viability of AD38 cells (Promega CellTiter-Glo). Format: cell-based. The conditions noted are these: 10 μM compound, 6 days, CellTiter-Glo luminescence normalized to DMSO control (100%). The method in brief: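 AD38 cells were seeded at 50,000/well on collagen-coated plates and treated with compound added as a 10× solution in 10% DMSO for 6 days at 37° C. Viability was measured by CellTiter-Glo luminescence in tetracycline-free medium with 2% FBS and 1% DMSO, and expressed as percent of DMSO control.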
(In general: ATP-based viability assays read luminescence as a measure of living cells.)

`O=C1Nc2c(cc(F)c(C(=O)NCc3cnc(-c4ccc(O)cc4)s3)c2F)Sc2ccccc21` [compound 1750]: the activity at 10 µM in data set [1] was 1.1%. In the data set with AD38 cells, the “AD38 Viability Normalized Result (cmpd/DMSO %) at 10 μM” value is recorded as 107%.
In the case of `N#Cc1ccc(-c2ncc(CNC(=O)c3ccc4c(c3Cl)NC(=O)c3ccccc3S4(=O)=O)s2)c(F)c1` [compound 11083], in data set [1], the activity at 10 µM was determined as 0.8%. Further, the “AD38 Viability Normalized Result (cmpd/DMSO %) at 10 μM” value in the data set on AD38 cells is 62%.
Consider `O=C(NCc1cnc(-c2ccc3[nH]ncc3c2)s1)c1ccc2c(c1)NC(=O)c1ccccc1S2(=O)=O` [compound 1805], for which the activity at 10 µM in data set [1] was 0.6%. Also, the “AD38 Viability Normalized Result (cmpd/DMSO %) at 10 μM” value in the data set with AD38 cells is recorded as 97%.
As for `O=C(NCc1cnc(N2C[C@H](O)CC[C@@H](O)C2)s1)c1ccc2c(c1)NC(=O)c1ccccc1S2(=O)=O` [compound 1972], the activity at 10 µM in data set [1] is 23.5%. Also, the “AD38 Viability Normalized Result (cmpd/DMSO %) at 10 μM” value in the data set on AD38 cells was 100%.
On the same counts, the results for `O=C(NCc1cnc(-c2ccc(O)c(F)c2)s1)c1ccc2c(c1)NC(=O)c1ccccc1S2(=O)=O` [compound 1664] are 0.6% and 99%.
On the same counts, the results for `O=C(NCc1cnc(-n2ccc(F)n2)s1)c1ccc2c(c1)NC(=O)c1ccccc1S2(=O)=O` [compound 11045] are 0.6% and 94%.
Consider `CN(C)c1ccc(-c2ncc(CNC(=O)c3ccc4c(c3)NC(=O)c3ccccc3S4(=O)=O)s2)cn1` [compound 1674], for which the activity at 10 µM in data set [1] was 0.3%. In addition, in the data set with AD38 cells, the “AD38 Viability Normalized Result (cmpd/DMSO %) at 10 μM” value stood at 121%.
For the compound `Cc1nc(C)c(CNC(=O)c2ccc3c(c2)NC(=O)c2ccccc2S3(=O)=O)s1` [compound 1763], the activity at 10 µM in data set [1] was 12.9%. Besides, the “AD38 Viability Normalized Result (cmpd/DMSO %) at 10 μM” value with AD38 cells was found to be 93%.
Taken in the same sequence, the figures for `Cc1c(C(=O)NCc2cnc(-c3ccc(OCCCN(C)C)cc3)s2)ccc2c1NC(=O)c1ccccc1O2` [C44-01] were 2.6% and 97%.
Regarding `Cl.NCc1ccccc1-c1ncc(CNC(=O)c2ccc3c(c2)NC(=O)c2ccccc2S3(=O)=O)s1` [compound 1841, N-((2-(2-(aminomethyl)phenyl)thiazol-5-yl)methyl)-11-oxo-10, 11-dihydrodibenzo [b, f] [1, 4] thiazepine-8-carboxamide 5,5-dioxide hydrochloride], the activity at 10 µM in data set [1] was 9.1%. The “AD38 Viability Normalized Result (cmpd/DMSO %) at 10 μM” value in the data set on AD38 cells is recorded as 104%.
With `NCCCS(=O)(=O)c1ccc(-c2ncc(CNC(=O)c3ccc4c(c3)NC(=O)c3ccccc3S4(=O)=O)s2)cc1.O=C(O)C(F)(F)F` [compound 11032, N-((2-(4-((3-aminopropyl)sulfonyl)phenyl)thiazol-5-yl)methyl)-11-oxo-10, 11-dihydrodibenzo [b, f] [1, 4] thiazepine-8-carboxamide 5,5-dioxide TFA salt], the activity at 10 µM in data set [1] worked out at 51.7%. Moreover, the “AD38 Viability Normalized Result (cmpd/DMSO %) at 10 μM” value in the data set on AD38 cells is 103%.
In the case of `CN(C)C1CCN(c2ncc(CNC(=O)c3ccc4c(c3)NC(=O)c3ccccc3S4(=O)=O)s2)CC1` [compound 1636], the activity at 10 µM in data set [1] was found to be 76.9%. Besides, the “AD38 Viability Normalized Result (cmpd/DMSO %) at 10 μM” value with AD38 cells was determined as 95%.
`Cc1c(C(=O)NCc2cnc(-n3cc(F)cn3)s2)ccc2c1NC(=O)c1ccccc1S2(=O)=O` [compound 11148]: in data set [1], the activity at 10 µM was found to be 0.3%. Further, in the data set with AD38 cells, the “AD38 Viability Normalized Result (cmpd/DMSO %) at 10 μM” value was determined as 98%.
Turning to `Cl.O=C(NCc1cnc(-c2ccc(OCCC3CCCN3)cc2)s1)c1ccc2c(c1)NC(=O)c1ccccc1S2(=O)=O` (centres unmarked) [compound 1996, 11-oxo-N-((2-(4-(2-(pyrrolidin-2-yl)ethoxy)phenyl)thiazol-5-yl)methyl)-10, 11-dihydrodibenzo [b, f] [1, 4] thiazepine-8-carboxamide 5,5-dioxide hydrochloride], the activity at 10 µM in data set [1] is 17.4%. The “AD38 Viability Normalized Result (cmpd/DMSO %) at 10 μM” value with AD38 cells was 100%.
Take `O=C(O)c1ccc(-c2ncc(CNC(=O)c3ccc4c(c3)NC(=O)c3ccccc3O4)s2)cc1` [compound 1612, 4-(5-((11-oxo-10, 11-dihydrodibenzo [b, f] [1, 4]oxazepine-8-carboxamido)methyl)thiazol-2-yl) benzoic acid]: the activity at 10 µM in data set [1] amounted to 6.9%. In addition, the “AD38 Viability Normalized Result (cmpd/DMSO %) at 10 μM” value in the data set on AD38 cells is recorded as 105%.
Take `CN(CCCOc1ccc(-c2ncc(CNC(=O)c3ccc4c(c3)NC(=O)c3ccccc3S4(=O)=O)s2)cc1)CC(F)(F)F` [compound 1994]: the activity at 10 µM in data set [1] is 0.9%. For the same compound, the “AD38 Viability Normalized Result (cmpd/DMSO %) at 10 μM” value with AD38 cells is reported as 92%.
On the same counts, the results for `CN(C)CCCOc1ccc(-c2ncc(CNC(=O)c3ccc4c(c3)NC(=O)c3ccccc3S4(=O)=O)s2)cc1` [compound 1679] are 1.1% and 94%.
Consider `O=C(NCc1cnc(C(F)(F)F)s1)c1ccc2c(c1)NC(=O)c1ccccc1S2(=O)=O` [compound 1553], for which the activity at 10 µM in data set [1] is 0.5%. Besides, the “AD38 Viability Normalized Result (cmpd/DMSO %) at 10 μM” value in the data set on AD38 cells was determined as 107%.
Take `O=C(NCc1cnc(-c2ccc(O)cc2)s1)c1ccc2c(c1)NC(=O)c1ccccc1C2` [compound 1734]: the activity at 10 µM in data set [1] was found to be 10.6%. The “AD38 Viability Normalized Result (cmpd/DMSO %) at 10 μM” value in the data set on AD38 cells stood at 96%.
